In US20240018145A1, “[…]-DEPENDENT EN[…] TREATING OR […]” (priority 2020, published 2024):

The molecules below were run on FLU A (PR/8/34) (assay: Flu A Neuraminidase Antiviral Assay). Settings: not given.
Format: cell-based

Question: For `CN1C(=O)c2c(O)c(=O)ccn2N2C(c3ccccc3C(F)(F)F)CCCC12` (single isomer, unassigned) [Compound 14B, 7-hydroxy-5-methyl-1-(2-(trifluoromethyl)phenyl)-1,2,3,4,4a,5-hexahydrodipyrido[1,2-b:2′,1′-f][1,2,4]triazine-6,8-dione], which EC50 is on record?
Answer: The EC50 was > 8.1 µM.

Question: For `CCCC1CCC2N(C)C(=O)c3c(O)c(=O)ccn3N2C1(C)c1ccccc1` (single isomer, unassigned) [Compound 33C, 7-hydroxy-1,5-dimethyl-1-phenyl-2-propyl-1,2,3,4,4a,5-hexahydrodipyrido[1,2-b:2′,1′-f][1,2,4]triazine-6,8-dione], which EC50 is on record?
Answer: The EC50 was 1.31 µM.

Question: For `C=CCC1CCC2N(C)C(=O)c3c(O)c(=O)ccn3N2C1c1ccccc1Cl` (centres unmarked) [Compound 64A, 2-allyl-1-(2-chlorophenyl)-7-hydroxy-5-methyl-1,2,3,4,4a,5-hexahydrodipyrido[1,2-b:2′,1′-f][1,2,4]triazine-6,8-dione], which EC50 is on record?
Answer: Its EC50 is 3.79 µM.

Question: With `CN1C(=O)c2c(O)c(=O)ccn2N2C1CCCC21CCc2ccccc21` (single isomer, unassigned) [Compound 21C, 7-hydroxy-5-methyl-2′,3,3′,4,4a,5-hexahydro-2H-spiro[dipyrido[1,2-b:2′,1′-f][1,2,4]triazine-1,1′-indene]-6,8-dione] as the molecule, how does the EC50 read?
Answer: Its EC50 is 1.6 µM.

Question: How did the EC50 turn out when `Cc1ccccc1C1N2C(CCC13CC1C(C3)C1(F)F)N(C)C(=O)c1c(O)c(=O)ccn12` (single isomer, unassigned) [Compound 69C, 6,6-difluoro-7′-hydroxy-5′-methyl-1′-(o-tolyl)-3′,4′,4a′,5′-tetrahydro-1′H-spiro[bicyclo[3.1.0]hexane-3,2′-dipyrido[1,2-b:2′,1′-f][1,2,4]triazine]-6′,8′-dione] was run?
Answer: Its EC50 is 0.0884 µM.

Question: Which EC50 does the source give for `CN1C(=O)c2c(O)c(=O)ccn2N2C(c3ccccc3)C(O)CCC12` (centres unmarked) [Compound 136B, 2,7-dihydroxy-5-methyl-1-phenyl-1,2,3,4,4a,5-hexahydrodipyrido[1,2-b:2′,1′-f][1,2,4]triazine-6,8-dione] here?
Answer: Its EC50 is > 8.1 µM.

Question: With `CCC1(c2ccccc2)CCC2N(C)C(=O)c3c(O)c(=O)ccn3N21` (single isomer, unassigned) [Compound 62B, 1-ethyl-6-hydroxy-4-methyl-1-phenyl-2,3,3a,4-tetrahydro-1H-pyrido[2,1-f]pyrrolo[1,2-b][1,2,4]triazine-5,7-dione] as the molecule, how does the EC50 read?
Answer: The EC50 was > 8.1 µM.

Question: Which EC50 does the source give for `CN1C(=O)c2c(O)c(=O)ccn2N2C(c3ccccc3)C(c3cccc(F)c3F)CCC12` (single isomer, unassigned) [Compound 116A, 2-(2,3-difluorophenyl)-7-hydroxy-5-methyl-1-phenyl-1,2,3,4,4a,5-hexahydrodipyrido[1,2-b:2′,1′-f][1,2,4]triazine-6,8-dione] here?
Answer: The EC50 was 6.2 µM.

Question: How did the EC50 turn out when `CN1C(=O)c2c(O)c(=O)ccn2N2C1CCC1(CCC(F)(F)CC1)C2c1ccccc1` (single isomer, unassigned) [Compound 72B, 4,4-difluoro-7′-hydroxy-5′-methyl-1′-phenyl-3′,4′,4a′,5′-tetrahydro-1′H-spiro[cyclohexane-1,2′-dipyrido[1,2-b:2′,1′-f][1,2,4]triazine]-6′,8′-dione] was run?
Answer: The EC50 was 0.0038 µM.

Question: `CN1C(=O)c2c(O)c(=O)ccn2N2C(c3ccccc3)C(CCC3CC3)CCC12` (single isomer, unassigned) [Compound 115B, 2-(2-cyclopropylethyl)-7-hydroxy-5-methyl-1-phenyl-1,2,3,4,4a,5-hexahydrodipyrido[1,2-b:2′,1′-f][1,2,4]triazine-6,8-dione] was tested. Which EC50 did it give?
Answer: Its EC50 is > 8.1 µM.

Question: `CN1C(=O)c2c(O)c(=O)ccn2N2C(c3ccccc3)C(C3CCC(F)(F)CC3)CCC12` (single isomer, unassigned) [Compound 84B, 2-(4,4-difluorocyclohexyl)-7-hydroxy-5-methyl-1-phenyl-1,2,3,4,4a,5-hexahydrodipyrido[1,2-b:2′,1′-f][1,2,4]triazine-6,8-dione] was tested. Which EC50 did it give?
Answer: Its EC50 is 0.042 µM.

Question: `O=C1c2c(O)c(=O)ccn2N2C(c3ccccc3)CCCC2N1CC1CC1` (single isomer, unassigned) [Compound 56B, 5-(cyclopropylmethyl)-7-hydroxy-1-phenyl-1,2,3,4,4a,5-hexahydrodipyrido[1,2-b:2′,1′-f][1,2,4]triazine-6,8-dione] was tested. Which EC50 did it give?
Answer: Its EC50 is 6.85 µM.

Question: Which EC50 does the source give for `CN1C(=O)c2c(O)c(=O)ccn2N2C(c3ccccc3)C(CC3CC3(F)F)CCC12` (single isomer, unassigned) [Compound 114C, 2-((2,2-difluorocyclopropyl)methyl)-7-hydroxy-5-methyl-1-phenyl-1,2,3,4,4a,5-hexahydrodipyrido[1,2-b:2′,1′-f][1,2,4]triazine-6,8-dione] here?
Answer: The EC50 was 0.0053 µM.

Question: Which EC50 does the source give for `CN1C(=O)c2c(O)c(=O)ccn2N2C1CCCC2(C)c1ccncc1` (single isomer, unassigned) [Compound 31A, 7-hydroxy-1,5-dimethyl-1-(pyridin-4-yl)-1,2,3,4,4a,5-hexahydrodipyrido[1,2-b:2′,1′-f][1,2,4]triazine-6,8-dione] here?
Answer: The EC50 was 0.283 µM.

Question: For `COc1c2n(ccc1=O)N1C(c3ccccc3)C(SC(C)C)CCC1N(C)C2=O` (centres unmarked) [Compound 146A, 2-(isopropylthio)-7-methoxy-5-methyl-1-phenyl-1,2,3,4,4a,5-hexahydrodipyrido[1,2-b:2′,1′-f][1,2,4]triazine-6,8-dione], which EC50 is on record?
Answer: The EC50 was 0.0187 µM.

Question: With `CN1C(=O)c2c(O)c(=O)ccn2N2C(c3ccccc3)C(CC3CC3(F)F)CCC12` (single isomer, unassigned) [Compound 114D, 2-((2,2-difluorocyclopropyl)methyl)-7-hydroxy-5-methyl-1-phenyl-1,2,3,4,4a,5-hexahydrodipyrido[1,2-b:2′,1′-f][1,2,4]triazine-6,8-dione] as the molecule, how does the EC50 read?
Answer: Its EC50 is 0.0023 µM.

Question: Which EC50 does the source give for `CN1C(=O)c2c(O)c(=O)ccn2N2C1CCCC2(C)c1c(F)cccc1F` (single isomer, unassigned) [Compound 23A, 1-(2,6-difluorophenyl)-7-hydroxy-1,5-dimethyl-1,2,3,4,4a,5-hexahydrodipyrido[1,2-b:2′,1′-f][1,2,4]triazine-6,8-dione] here?
Answer: The EC50 was > 8.1 µM.

Question: `CC1(c2ncc(F)cc2F)CCCC2N(CC(F)F)C(=O)c3c(O)c(=O)ccn3N21` (single isomer, unassigned) [Compound 47B, 5-(2,2-difluoroethyl)-1-(3,5-difluoropyridin-2-yl)-7-hydroxy-1-methyl-1,2,3,4,4a,5-hexahydrodipyrido[1,2-b:2′,1′-f][1,2,4]triazine-6,8-dione] was tested. Which EC50 did it give?
Answer: Its EC50 is 4.38 µM.

Question: `CN1C(=O)c2c(O)c(=O)ccn2N2C(c3ccccc3)C(c3ccc(F)c(F)c3F)CCC12` (single isomer, unassigned) [Compound 85D, 7-hydroxy-5-methyl-1-phenyl-2-(2,3,4-trifluorophenyl)-1,2,3,4,4a,5-hexahydrodipyrido[1,2-b:2′,1′-f][1,2,4]triazine-6,8-dione] was tested. Which EC50 did it give?
Answer: The EC50 was 0.218 µM.

Question: How did the EC50 turn out when `Cc1ccccc1C1N2C(CCC13CCC(F)(F)CC3)N(C)C(=O)c1c(O)c(=O)ccn12` (single isomer, unassigned) [Compound 70A, 4,4-difluoro-7′-hydroxy-5′-methyl-1′-(o-tolyl)-3′,4′,4a′,5′-tetrahydro-1′H-spiro[cyclohexane-1,2′dipyrido[1,2-b:2′,1′-f][1,2,4]triazine]-6′,8′-dione] was run?
Answer: Its EC50 is 0.299 µM.

Question: Which EC50 does the source give for `Cc1cccnc1C1(C)CCCC2N(CC(F)(F)F)C(=O)c3c(O)c(=O)ccn3N21` (single isomer, unassigned) [Compound 44B, 7-hydroxy-1-methyl-1-(3-methylpyridin-2-yl)-5-(2,2,2-trifluoroethyl)-1,2,3,4,4a,5-hexahydrodipyrido[1,2-b:2′,1′-f][1,2,4]triazine-6,8-dione] here?
Answer: The EC50 was 0.0152 µM.

Question: For `CCC1(c2ccccc2)CCC2N(C)C(=O)c3c(O)c(=O)ccn3N21` (single isomer, unassigned) [Compound 62D, 1-ethyl-6-hydroxy-4-methyl-1-phenyl-2,3,3a,4-tetrahydro-1H-pyrido[2,1-f]pyrrolo[1,2-b][1,2,4]triazine-5,7-dione], which EC50 is on record?
Answer: Its EC50 is 7.97 µM.

Question: Which EC50 does the source give for `CN1C(=O)c2c(O)c(=O)ccn2N2C1CCCC2(C)c1cccc(Cl)c1` (single isomer, unassigned) [Compound 28A, 1-(3-chlorophenyl)-7-hydroxy-1,5-dimethyl-1,2,3,4,4a,5-hexahydrodipyrido[1,2-b:2′,1′-f][1,2,4]triazine-6,8-dione] here?
Answer: Its EC50 is 0.0052 µM.

Question: How did the EC50 turn out when `CN1C(=O)c2c(O)c(=O)ccn2N2C1CCC(C)(CC(F)(F)F)C2c1ccccc1` (single isomer, unassigned) [Compound 71B, 7-hydroxy-2,5-dimethyl-1-phenyl-2-(2,2,2-trifluoroethyl)-1,2,3,4,4a,5-hexahydrodipyrido[1,2-b:2′,1′-f][1,2,4]triazine-6,8-dione] was run?
Answer: The EC50 was 0.0185 µM.

Question: For `CN1C(=O)c2c(O)c(=O)ccn2N2C(c3ccc(F)cc3)C(CC(F)(F)F)CCC12` (single isomer, unassigned) [Compound 122B, 1-(4-fluorophenyl)-7-hydroxy-5-methyl-2-(2,2,2-trifluoroethyl)-1,2,3,4,4a,5-hexahydrodipyrido[1,2-b:2′,1′-f][1,2,4]triazine-6,8-dione], which EC50 is on record?
Answer: The EC50 was 0.0052 µM.

Question: How did the EC50 turn out when `CC1CC(c2ccccc2)N2C(C1)N(C)C(=O)c1c(O)c(=O)ccn12` (single isomer, unassigned) [Compound 6B, 7-hydroxy-3,5-dimethyl-1-phenyl-1,2,3,4,4a,5-hexahydrodipyrido[1,2-b:2′,1′-f][1,2,4]triazine-6,8-dione] was run?
Answer: Its EC50 is 7.76 µM.

Same assay, conditions: MDCK, 48 h

Question: How did the EC50 turn out when `CN1C(=O)c2c(O)c(=O)c(-c3nnn[nH]3)cn2N2C(c3ccccc3)C(CC(F)(F)F)CCC12` (centres unmarked) [Compound 134, 7-hydroxy-5-methyl-1-phenyl-9-(1H-tetrazol-5-yl)-2-(2,2,2-trifluoroethyl)-1,2,3,4,4a,5-hexahydrodipyrido[1,2-b:2′,1′-f][1,2,4]triazine-6,8-dione] was run?
Answer: The EC50 was 0.453 µM.

Question: With `COC1(c2ccccc2)CCCC2C1n1ccc(=O)c(O)c1C(=O)N2C` (centres unmarked) [Compound 167, 7-hydroxy-1-methoxy-5-methyl-1-phenyl-1,3,4,4a,5,11a-hexahydro-2H-pyrido[1,2-a]quinoxaline-6,8-dione] as the molecule, how does the EC50 read?
Answer: Its EC50 is 0.109 µM.

Question: With `CN1C(=O)c2c(O)c(=O)ccn2N2[C@H](c3ccccc3)[C@@H](N=[N+]=[N-])CC[C@@H]12` [Compound 139, (1R,2S,4aS)-2-azido-7-hydroxy-5-methyl-1-phenyl-1,2,3,4,4a,5-hexahydrodipyrido[1,2-b:2′,1′-f][1,2,4]triazine-6,8-dione] as the molecule, how does the EC50 read?
Answer: Its EC50 is 0.0236 µM.
